Reference: PubChem BioAssay AID1250 (SRMLSC, 2008)
Active and inactive are the calls of the source.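 Rule for the calls: active = inhibition of at least 30% at one or more tested concentrations; inactive = inhibition below 30% at every dose.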

Test system: BSR cells, Bluetongue virus CPE, ATP luminescence, 72 h
Assay: inhibitors of Bluetongue virus cytopathic effect, confirmation, arbovirus, BSR cells (AID 1250)
Conditions: not given

Row | SMILES | IC50 [µM]
1 | CC(C)(C)n1nnnc1C(c1ccc(C(F)(F)F)cc1)N(Cc1ccc(F)cc1)Cc1ccco1 (stereo not given) | 20.5
2 | COc1ccc(/C=C/C(=O)Nc2ccccc2C(=O)O)cc1OC | 4.78
3 | CC(C)COc1ccc(C(=O)Nc2sc3c(c2C(=O)O)CC(C)(C)OC3)cc1 | 13.1
4 | CC(C)(C)c1c(Cl)c(O)c(-c2ccccc2)c(=O)n1-c1ccccc1 | 15.5
5 | COC(=O)c1ccccc1NC(=O)CN1CCC(NC(=O)c2ccccc2C)CC1 | 1.45
6 | CCCCCCc1cc2cc(C(=O)Nc3ccccc3OC)c(=O)oc2cc1O | 9.14
7 | COc1ccc(N=C2S/C(=C\c3ccc(OCC(=O)O)cc3)C(=O)N2CCc2c[nH]c3ccccc23)cc1 | 15.6
8 | O=C(Nc1nc(-c2ccccc2)cs1)c1cccs1 | 10.1
9 | CCc1cc(C(=O)O)c(NC(=O)/C=C/c2ccc(OC)c(OC)c2)s1 | 1.68
10 | O=C(O)CSc1cc(C(=O)c2ccccc2O)cn2c(=O)c3c(-c4ccccc4)csc3nc12 | 14.1
11 | CCOC(=O)c1ccc(N2C(=O)C3C(/C=C/c4ccccc4)OC4(C(=O)c5ccccc5C4=O)C3C2=O)cc1 (stereo not given) | 19.6
12 | Cc1ccc(-c2csc(NC(=O)/C=C/c3ccco3)c2C(=O)O)cc1 | 8.57
13 | CCc1nn2c(N)c(/C=C3\C=Nc4ccccc43)c(=O)nc2s1 | 18.3
14 | CC(C)(C)c1ccc(C(=O)Nc2sc3c(c2C(=O)O)CCC3)cc1 | 0.165

Test system: not listed separately
Assay: as above
Conditions: BSR cells, Bluetongue virus CPE, ATP luminescence, 72 h; at 5 µM (top of the series)

Row | SMILES | CPE inhibition
15 | O=C(Nc1cccc(Cl)c1)Nc1ccnc(-c2cccnc2)n1 | 23.9% (inactive)

Same assay, conditions: BSR cells, Bluetongue virus CPE, ATP luminescence, 72 h; at 20 µM (top of the series)

Row | SMILES | CPE inhibition
16 | CN(C)C(=O)COC(=O)c1ccccc1Nc1ccc(SC(F)F)cc1 | 23% (inactive)
17 | COCCCNCC1C(Oc2ccc(Cl)cc2)C(=O)N1c1ccccc1C (stereo not given) | 14.4% (inactive)
18 | CN(C)Cc1c(O)c(Cl)cc2c3c(c(=O)oc12)CCCC3 | -0.25% (inactive)
19 | COc1cc2c(C(=O)O)c(C)n(CC(C)C)c2c2ccccc12 | 28.1% (inactive)
20 | COC(=O)[C@H](Cc1ccccc1)NC(=O)O[C@@H]1C(=O)c2cc(OC)ccc2O[C@H]1c1ccc(OC)c(Br)c1 | 13.7% (inactive)
21 | O=c1oc(-c2ccccc2)nc2sc3c(c12)CCCC3 | 24.9% (inactive)
22 | O=C(CCCN1C(=O)/C(=C/c2cccs2)SC1=S)Nc1cccc(C(=O)O)c1 | 1.7% (inactive)
23 | C=CCN(C(=O)c1cccc(N2C(=O)C3CC=CC(C)C3C2=O)c1)c1ccccc1 (stereo not given) | 8.5% (inactive)
24 | Cc1cccc(Sc2nc(-c3ccccc3)ncc2C(=O)O)c1 | 7.57% (inactive)
25 | Oc1ccc(Br)cc1-c1cc(-c2ccccc2)n[nH]1 | 19.6% (inactive)
26 | CCn1c(COc2cccc3ccccc23)nnc1SCC(=O)OC1CCCCC1 | 2.2% (inactive)
27 | O=C(/C=C/c1ccc2c(c1)OCCCO2)c1ccc2ccccc2c1O | 18.2% (inactive)
28 | CCc1cccc(C)c1NC(=O)CN(C)Cc1ccc(Br)cc1 | 10.2% (inactive)
29 | O=C(C1CC1)N1CCN=C1SCc1ccc(Cl)cc1 | 0% (inactive)
30 | C/C(=N\NC(=O)COc1ccc([N+](=O)[O-])cc1)C(C)(C)C | 4.19% (inactive)
31 | CCCc1cc2c(OC(=O)CC)c(-c3ccc(C(=O)OCC)o3)c(=O)oc2cc1OC | 19.6% (inactive)
32 | O=C(CSc1ncn[nH]1)Nc1nc(-c2ccccc2)ns1 | 6.55% (inactive)
33 | COc1ccc(CN(C(=O)c2oc3ccccc3c2C)C2CCS(=O)(=O)C2)cc1OC (stereo not given) | 18.3% (inactive)
34 | O=C(O)CCCC(=O)Nc1nc2n(n1)C(c1ccc(F)cc1)CC(c1ccc(Cl)cc1)N2 (stereo not given) | 2.43% (inactive)
35 | Nc1nc2ccccc2n1/N=C/c1ccc(-c2ccccc2)o1 | 12.9% (inactive)
36 | N#Cc1c(N2C(=O)Nc3ccccc3N2O)sc2c1CCCCCC2 | 19.9% (inactive)
37 | COc1ccc(-c2csc(NC(=O)Cc3cccc4ccccc34)c2C(=O)O)cc1 | 24.9% (inactive)
38 | COC(=O)c1sccc1NC(=O)CSc1ccccc1NS(=O)(=O)c1ccc(Br)cc1 | 18.5% (inactive)
39 | O=C(O)c1cnc(-c2ccccc2)nc1Sc1ccccc1Cl | 11.8% (inactive)
40 | CS(=O)(=O)c1nsc2nc(=O)c(/C=C3\C=Nc4ccccc43)c(N)n12 | 14.8% (inactive)
41 | COc1cccc(C2=CC(c3ccc(C)cc3)n3ncnc3N2)c1 (stereo not given) | 22.6% (inactive)
42 | CCOC1=C/C(=C/c2c(N)n3nc(-c4ccccc4)sc3nc2=O)C=CC1=O | 18% (inactive)

Row | SMILES | CPE inhibition
43 | COCCn1c(C)cc(C(=O)CSc2cc(C)c3ccccc3n2)c1C | 7.16% (inactive)
44 | CCOC(=O)C1CCCN(Cc2ccccc2Cl)C1 (stereo not given) | 6.31% (inactive)
45 | CCCCCNc1nc2ccccc2nc1NS(=O)(=O)c1cccs1 | 20.4% (inactive)
46 | Cc1ccc(Nc2nc(N)c([N+](=O)[O-])c(N3CCOCC3)n2)cc1C | 11.3% (inactive)
47 | Cc1nn2c(-c3ccccc3)c(-c3ccccc3)nc2[nH]c1=O | 9.59% (inactive)
48 | OCCNc1nc(Nc2ccccc2)nc2ccccc12 | 15.3% (inactive)
49 | COc1cc(-c2nnc(-c3ccc(N4CCOCC4)cc3)o2)cc(OC)c1OC | 8.33% (inactive)
50 | O=c1oc(-c2ccccc2NS(=O)(=O)c2ccc3ccccc3c2)nc2ccccc12 | 10.9% (inactive)
51 | CSc1ncc(Cl)c(C(=O)C(C#N)c2nc3c(C)cc(C)cc3c(=O)[nH]2)n1 (stereo not given) | 20.1% (inactive)
52 | Oc1ccccc1CNCCCNCc1ccccc1O | 20.8% (inactive)
53 | C/C(C/C(C)=C1/SC(=S)NC1=O)=C1\SC(=S)NC1=O | 6.76% (inactive)
54 | O=C(CCn1c(=O)sc2ccccc21)NCCCn1ccnc1 | 4.88% (inactive)
55 | CCCn1c2c(c(O)c(C(=O)Nc3nc4ccccc4s3)c1=O)CCCC2 | 19.3% (inactive)
56 | Cc1oc(-c2ccccc2Cl)nc1CSCC(=O)N1CCCC1 | 16.4% (inactive)
57 | O=C(O)CCn1cc(/C=C/C(=O)c2ccc(Cl)cc2)c(-c2ccc(Br)cc2)n1 | 13.8% (inactive)
58 | COc1ccc(C(=O)NN/C(C)=C/C(=O)C(F)(F)C(F)(F)C(F)(F)F)cc1 | -14.6% (inactive)
59 | N#Cc1ccccc1NC(=O)c1ccccc1OCC(=O)NCc1ccco1 | 6.97% (inactive)
60 | Cc1cc(/C=C2/C(=N)N3C(=NC2=O)SN=C3S(C)(=O)=O)c(C)n1-c1ccc(F)cc1 | 20.6% (inactive)
61 | CSc1nsc2nc(=O)c(/C=C3\C(C)=Nc4ccccc43)c(N)n12 | 23% (inactive)
62 | Cc1ccccc1OCCSCc1nc2ccccc2[nH]1 | 24.9% (inactive)
63 | O=C(NNC(=S)NC1CCCCC1)c1ccc(Cl)s1 | 28.3% (inactive)
64 | CCN(Cc1ccncc1)Cc1c(O)ccc2cc(Br)ccc12 | 8.02% (inactive)
65 | COc1ccccc1NC(=O)CN1CCC(n2c(C)nc3cc(F)ccc32)CC1 | 23.7% (inactive)
66 | O=C(COc1ccc(Cl)cc1)Nc1ncc([N+](=O)[O-])s1 | 25.3% (inactive)
67 | Cc1ccc2nc(NC(=O)C3CCN(S(=O)(=O)c4cnc[nH]4)CC3)sc2c1 | 14% (inactive)
68 | COc1cc(/C=C/C(=O)c2c(O)n(CCc3ccccc3)c(=O)[nH]c2=O)ccc1O | 13% (inactive)
69 | O=C1CC(c2cccc([N+](=O)[O-])c2)c2ccc3ccccc3c2N1 (stereo not given) | 8.81% (inactive)

Row | SMILES | CPE inhibition
70 | CCOC(=O)c1ccc(NC(=S)N2CCSC2c2c(F)cc(F)cc2F)cc1 (stereo not given) | 11.8% (inactive)
71 | Cc1ccccc1-n1nc(CSc2nc3ccccc3[nH]2)c(-c2ccccc2)c1N | 14.9% (inactive)
72 | Cc1nn(Cc2ccccc2)c(Cl)c1C(=O)NC1CCCc2ccccc21 (stereo not given) | 16.5% (inactive)
73 | O=c1/c(=C/c2ccc(O)c([N+](=O)[O-])c2)sc2nc3ccccc3n12 | 12.4% (inactive)
74 | COc1cc2c(cc1NC(=O)CC1SC(N3CCCC3)=NC1=O)oc1ccccc12 (stereo not given) | 13.7% (inactive)
75 | CC(C)n1c(NCCc2ccccc2)nc2c1c(=O)n(C)c(=O)n2C | 7.91% (inactive)
76 | CCOc1cccc(C(=O)Nc2ccccc2N2CCN(C(=O)C(C)C)CC2)c1 | 9.61% (inactive)
77 | COc1ccc(CCNCC(O)c2ccccc2)cc1 (stereo not given) | 13.7% (inactive)
78 | COc1ccc(C(=O)Nc2sc3c(c2C(=O)O)CC(C)(C)OC3)cc1 | 27.2% (inactive)
79 | N#Cc1c(-c2ccco2)nc(SCC(=O)Nc2ccc(S(N)(=O)=O)cc2)[nH]c1=O | 4.9% (inactive)
80 | COc1cccc(C(=O)Nc2cccc(C(=O)NC3=NN(c4c(Cl)cc(Cl)cc4Cl)C(=O)C3)c2)c1 | 18.8% (inactive)
81 | O=C(c1ccc2ccccc2n1)N1CCN(c2ccccc2Cl)CC1 | 8.76% (inactive)
82 | Cc1ccc(C(=O)O)cc1-c1ccc(/C=C2/NC(=O)N(c3ccccc3)C2=O)o1 | 19.9% (inactive)
83 | O=C(Nc1nnc(SCc2ccccc2Cl)s1)C1COc2ccccc2O1 (stereo not given) | 16.7% (inactive)
84 | CC(=O)Nc1ccc(NC(=O)COc2ccccc2C(=O)Nc2cccc(Cl)c2Cl)cc1 | 15% (inactive)
85 | COc1ccc(CCCc2nnc(SCc3nc4ccccc4c(=O)[nH]3)n2C)cc1 | 3.86% (inactive)
86 | O=C(O)c1cc(-c2ccc(/C=N/Nc3ccc([N+](=O)[O-])cn3)o2)ccc1Cl | 21.4% (inactive)
87 | Cc1nc(CNS(=O)(=O)c2cccnc2)cs1 | 4.68% (inactive)
88 | COc1ccc(C(=O)Nc2ccccc2C(=O)O)cc1Cl | 24.1% (inactive)
89 | CC1CC(C)(C)CC2(C1)NC(=O)N(CC(=O)NCCc1c[nH]c3ccccc13)C2=O (stereo not given) | 23.6% (inactive)
90 | CCSc1nnc(NC(=O)CSc2nnc(Cc3cccn3C)n2-c2ccc(F)cc2)s1 | 13.9% (inactive)
91 | O=C1c2ccccc2N2C(=O)c3ccccc3[C@H]2N1c1ccccc1 | 2.15% (inactive)
92 | COc1cc2ccccc2cc1C(=O)NC(=S)Nc1cc(C(=O)O)ccc1C | 17.8% (inactive)
93 | Cc1ccc2nc(NC(=O)C3CCCN(S(=O)(=O)c4cnc[nH]4)C3)sc2c1 (stereo not given) | 22.3% (inactive)
94 | CCN=c1scc(C)n1/N=C/c1cc(Br)c(O)c(Br)c1 | -2.38% (inactive)
95 | N#Cc1c(NC(=O)CSc2nnc(-c3ccccc3)o2)sc2c1CCCC2 | -0.12% (inactive)
